# Earlier results as cited in US8653051B2, “Use of 3-alpha-androstanediol in combination with a PDE5 inhibitor, in the treatment of sexual dysfunction” (Emotional Brain B.V., priority 2006, dated 2014).
# Conditions: typical value after administration
smiles,measurement,value
"CCCc1nc(C)c2c(=O)nc(-c3cc(S(=O)(=O)N4CCN(CC)CC4)ccc3OCC)[nH]n12.Cl [vardenafil, piperazine, 1-[[3-(1,4-dihydro-5-methyl-4-oxo-7-propylimidazo[5,1-f][1,2,4]triazin-2-yl)-4-ethoxyphenyl]sulfonyl]-4-ethyl-, monohydrochloride]",time to reach peak plasma concentration after administration,about 1 hour
